From patent US20240366589A1, “NHE3-BINDING COMPOUNDS AND METHODS FOR INHIBITING PHOSPHATE TRANSPORT” (Ardelyx, Inc., priority 2013, published 2024)

Experiments:
Rat NHE3 = biological target: T1, Rat NHE3 (Rattus norvegicus, UniProt P26433); test: Cell-based NHE3 activity under prompt conditions (OK cells, BCECF pH recovery), rat NHE3; conditions: prompt conditions
T1 construct: expressed in transfected cells; host or cells: Opossum kidney (OK) cells (ATCC), electroporation
Summary of the method: (§1)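 Read-out: initial rate of BCECF-reported intracellular pH recovery via Na+/H+ antiport, fitted to pIC50. Opossum kidney cells transfected with rat or human NHE3; NH4Cl prepulse with 5 μM BCECF-AM, 30 min RT; Na+-free choline buffer 10 min.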

[1] = tested on: phosphorus and calcium levels in the urine of rats; test: Urinary excretion of phosphate and calcium in rats (16 h overnight urine); format: in vivo, rat; conditions: rats, oral gavage, 16 h post-dose
[2] = tested on: absorption of sodium from the intestinal lumen; test: Inhibition of intestinal sodium absorption: urinary sodium (uNa) 16 h after single oral dose in rats; format: in vivo, rat; conditions: oral gavage, 16 h post-dose
Summary of the method: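 Urinary sodium mass over the 16 h after one oral gavage dose, measured by cation-exchange ion chromatography, reported as percent of water-vehicle group; ANOVA plus Dunnett's post hoc test. Groups of six 8-week-old Sprague-Dawley rats, housed individually in metabolic cages post-dose, fed and watered freely.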

Human NHE3 = biological target: T2, Human NHE3 (Homo sapiens, UniProt P48764); test: Cell-based NHE3 activity under prompt conditions (OK cells, BCECF pH recovery), human NHE3; conditions: prompt conditions
T2 construct: expressed in transfected cells; host or cells: Opossum kidney (OK) cells (ATCC), electroporation
T2 sequence (P48764 26-834): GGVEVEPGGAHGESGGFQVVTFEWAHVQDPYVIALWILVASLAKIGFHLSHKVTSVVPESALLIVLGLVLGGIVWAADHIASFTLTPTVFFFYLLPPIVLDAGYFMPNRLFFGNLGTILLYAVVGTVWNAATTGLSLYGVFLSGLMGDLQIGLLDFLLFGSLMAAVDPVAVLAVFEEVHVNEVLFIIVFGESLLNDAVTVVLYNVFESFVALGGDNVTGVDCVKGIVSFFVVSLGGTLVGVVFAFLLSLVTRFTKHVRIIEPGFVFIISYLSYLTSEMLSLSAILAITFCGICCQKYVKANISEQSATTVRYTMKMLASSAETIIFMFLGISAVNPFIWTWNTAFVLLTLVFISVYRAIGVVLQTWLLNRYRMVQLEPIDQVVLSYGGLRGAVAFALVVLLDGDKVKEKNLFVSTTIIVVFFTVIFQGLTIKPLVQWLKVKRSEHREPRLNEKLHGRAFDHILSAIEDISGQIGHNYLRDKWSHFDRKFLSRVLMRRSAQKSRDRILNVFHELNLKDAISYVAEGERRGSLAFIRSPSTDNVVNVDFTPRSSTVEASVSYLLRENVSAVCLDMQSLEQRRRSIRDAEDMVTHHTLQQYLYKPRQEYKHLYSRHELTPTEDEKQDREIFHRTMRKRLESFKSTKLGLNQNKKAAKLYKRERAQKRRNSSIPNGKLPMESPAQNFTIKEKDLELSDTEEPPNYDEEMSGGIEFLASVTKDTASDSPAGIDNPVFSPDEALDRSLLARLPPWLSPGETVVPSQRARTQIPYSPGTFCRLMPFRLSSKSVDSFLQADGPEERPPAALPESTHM
Summary of the method: as §1

[3] = tested on: absorption of sodium from the intestinal lumen; test: Fecal form score (FFS) 16 h after oral dose in rats; format: in vivo, rat; conditions: oral gavage, 16 h post-dose, scale 1-5
Summary of the method: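 Fecal form was scored at 16 h post-dose on a 1–5 wetness scale (normal pellet to liquid stream), with two independent observations averaged across six rats per group. Animals were 8-week-old Sprague-Dawley rats given test compound or water orally in the late afternoon and kept in metabolic cages.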

T1 sequence (P26433 29-831): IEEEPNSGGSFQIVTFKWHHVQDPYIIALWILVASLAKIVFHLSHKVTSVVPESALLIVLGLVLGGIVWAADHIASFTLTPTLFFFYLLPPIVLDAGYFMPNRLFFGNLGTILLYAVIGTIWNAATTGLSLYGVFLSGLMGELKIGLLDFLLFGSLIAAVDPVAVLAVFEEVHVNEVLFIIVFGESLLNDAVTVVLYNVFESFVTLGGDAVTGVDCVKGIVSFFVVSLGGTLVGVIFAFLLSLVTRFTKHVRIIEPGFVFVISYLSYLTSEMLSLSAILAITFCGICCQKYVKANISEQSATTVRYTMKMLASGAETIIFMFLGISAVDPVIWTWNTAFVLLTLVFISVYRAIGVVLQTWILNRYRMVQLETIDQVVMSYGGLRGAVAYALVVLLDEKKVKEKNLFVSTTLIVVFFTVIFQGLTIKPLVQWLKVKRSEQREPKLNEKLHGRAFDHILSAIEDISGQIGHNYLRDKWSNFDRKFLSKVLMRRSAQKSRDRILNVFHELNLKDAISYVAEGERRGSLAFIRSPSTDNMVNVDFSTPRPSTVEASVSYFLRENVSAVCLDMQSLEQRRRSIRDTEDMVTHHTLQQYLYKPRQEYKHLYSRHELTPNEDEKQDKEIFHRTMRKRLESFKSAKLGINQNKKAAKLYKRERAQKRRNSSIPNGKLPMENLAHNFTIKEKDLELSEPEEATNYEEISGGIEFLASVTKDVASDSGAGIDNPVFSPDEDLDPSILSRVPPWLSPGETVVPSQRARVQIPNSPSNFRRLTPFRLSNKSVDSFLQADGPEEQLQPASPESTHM

Compound	Prompt Rat NHE3 pIC50 (Rat NHE3)	Urine P % of control ([1]; dose 10 mg/kg)	Urine Na % of control ([2]; dose 10 mg/kg)	Prompt Human NHE3 pIC50 (Human NHE3)	Fecal Form Score average ([3]; dose 10 mg/kg)	Urine P % of control ([1]; dose 3 mg/kg)	Urine Na % of control ([2]; dose 3 mg/kg)	Fecal Form Score average ([3]; dose 3 mg/kg)	Urine P % of control ([1]; dose 1 mg/kg)	Urine Na % of control ([2]; dose 1 mg/kg)	Fecal Form Score average ([3]; dose 1 mg/kg)	IC50 (Human NHE3; read-out: Prompt Human NHE3 pIC50 (converted))
CN1Cc2c(Cl)cc(Cl)cc2[C@H](c2cccc(S(=O)(=O)NCCOCCOCCNC(=O)CN(CCOCCOCCN(CC(=O)NCCOCCOCCNS(=O)(=O)c3cccc([C@@H]4CN(C)Cc5c(Cl)cc(Cl)cc54)c3)CC(=O)NCCOCCOCCNS(=O)(=O)c3cccc([C@@H]4CN(C)Cc5c(Cl)cc(Cl)cc54)c3)CC(=O)NCCOCCOCCNS(=O)(=O)c3cccc([C@@H]4CN(C)Cc5c(Cl)cc(Cl)cc54)c3)c2)C1 [compound 85]	5.80	85%	92%	6.10	1	–	–	–	–	–	–	–
CN1Cc2c(Cl)cc(Cl)cc2[C@H](c2cccc(S(=O)(=O)NCCOCCOCCNC(=O)NCCN(CCNC(=O)NCCOCCOCCNS(=O)(=O)c3cccc([C@@H]4CN(C)Cc5c(Cl)cc(Cl)cc54)c3)C(=O)NCCCCCCCCCCCCNC(=O)N(CCNC(=O)NCCOCCOCCNS(=O)(=O)c3cccc([C@@H]4CN(C)Cc5c(Cl)cc(Cl)cc54)c3)CCNC(=O)NCCOCCOCCNS(=O)(=O)c3cccc([C@@H]4CN(C)Cc5c(Cl)cc(Cl)cc54)c3)c2)C1 [compound 86]	5.80	89%	87%	5.90	1	–	–	–	–	–	–	–
O=C(NCCCCNC(=O)NCCOCCOCCNS(=O)(=O)c1ccc(O[C@H]2c3cc(Cl)cc(Cl)c3C[C@@H]2N2CC[C@@H](O)C2)cc1)NCCOCCOCCNS(=O)(=O)c1ccc(O[C@H]2c3cc(Cl)cc(Cl)c3C[C@@H]2N2CC[C@@H](O)C2)cc1 [compound 87]	<5.00	–	–	8.20	–	29%	54%	1	–	–	–	–
CN1Cc2c(Cl)cc(Cl)cc2[C@H](c2cccc(S(=O)(=O)NCCOCCOCCNC(=O)CCC(N)(CCC(=O)NCCOCCOCCNS(=O)(=O)c3cccc([C@@H]4CN(C)Cc5c(Cl)cc(Cl)cc54)c3)CCC(=O)NCCOCCOCCNS(=O)(=O)c3cccc([C@@H]4CN(C)Cc5c(Cl)cc(Cl)cc54)c3)c2)C1 [compound 88]	7.07	69%	21%	7.93	5	75%	22%	3	77%	84%	1	–
CCC(=O)NC(CCC(=O)NCCOCCOCCOCCNS(=O)(=O)c1cccc([C@@H]2CN(C)Cc3c(Cl)cc(Cl)cc32)c1)(CCC(=O)NCCOCCOCCOCCNS(=O)(=O)c1cccc([C@@H]2CN(C)Cc3c(Cl)cc(Cl)cc32)c1)CCC(=O)NCCOCCOCCOCCNS(=O)(=O)c1cccc([C@@H]2CN(C)Cc3c(Cl)cc(Cl)cc32)c1 [compound 89]	7.10	117%	49%	7.90	3	–	–	–	–	–	–	–
CN1Cc2c(Cl)cc(Cl)cc2[C@H](c2cccc(S(=O)(=O)NCCOCCOCCOCCNC(=O)CCC(N)(CCC(=O)NCCOCCOCCOCCNS(=O)(=O)c3cccc([C@@H]4CN(C)Cc5c(Cl)cc(Cl)cc54)c3)CCC(=O)NCCOCCOCCOCCNS(=O)(=O)c3cccc([C@@H]4CN(C)Cc5c(Cl)cc(Cl)cc54)c3)c2)C1 [compound 90]	7.20	20%	38%	7.85	5	58%	30%	1	65%	76%	1	–
CN1Cc2c(Cl)cc(Cl)cc2[C@H](c2cccc(S(=O)(=O)NCCOCCOCCOCCNC(=O)CCC(CCC(=O)NCCOCCOCCOCCNS(=O)(=O)c3cccc([C@@H]4CN(C)Cc5c(Cl)cc(Cl)cc54)c3)(CCC(=O)NCCOCCOCCOCCNS(=O)(=O)c3cccc([C@@H]4CN(C)Cc5c(Cl)cc(Cl)cc54)c3)NC(=O)c3ccc(-c4ccc(Cl)cc4)cc3)c2)C1 [compound 91]	5.30	56%	77%	<5.00	1	–	–	–	–	–	–	–
CCCCCCCCCCC(=O)NC(CCC(=O)NCCOCCOCCNS(=O)(=O)c1cccc([C@@H]2CN(C)Cc3c(Cl)cc(Cl)cc32)c1)(CCC(=O)NCCOCCOCCNS(=O)(=O)c1cccc([C@@H]2CN(C)Cc3c(Cl)cc(Cl)cc32)c1)CCC(=O)NCCOCCOCCNS(=O)(=O)c1cccc([C@@H]2CN(C)Cc3c(Cl)cc(Cl)cc32)c1 [compound 94]	<5.00	66%	67%	5.60	1	–	–	–	–	–	–	–
CN1Cc2c(Cl)cc(Cl)cc2[C@H](c2cccc(S(=O)(=O)NCCOCCOCCNC(=O)NCCN(CCNC(=O)NCCOCCOCCNS(=O)(=O)c3cccc([C@@H]4CN(C)Cc5c(Cl)cc(Cl)cc54)c3)C(=O)CCOCCOCCOCCOCCOCCOCCOCCOCCOCCC(=O)N(CCNC(=O)NCCOCCOCCNS(=O)(=O)c3cccc([C@@H]4CN(C)Cc5c(Cl)cc(Cl)cc54)c3)CCNC(=O)NCCOCCOCCNS(=O)(=O)c3cccc([C@@H]4CN(C)Cc5c(Cl)cc(Cl)cc54)c3)c2)C1 [compound 95]	6.60	111%	38%	7.00	2	–	–	–	–	–	–	–
CN1Cc2c(Cl)cc(Cl)cc2[C@H](c2cccc(S(=O)(=O)NCCOCCOCCNC(=O)CCC(=O)NCCOCCOCCNS(=O)(=O)c3ccc(O[C@H]4c5ccccc5C[C@@H]4N4CCCCC4)cc3)c2)C1 [compound 96]	7.50	94%	33%	8.30	1	–	–	–	–	–	–	–
CN1Cc2c(Cl)cc(Cl)cc2[C@H](c2cccc(S(=O)(=O)NCCOCCOCCNC(=O)COCC(=O)NCCOCCOCCNS(=O)(=O)c3ccc(O[C@H]4c5ccccc5C[C@@H]4N4CCCCC4)cc3)c2)C1 [compound 97]	7.60	78%	64%	8.50	1	–	–	–	–	–	–	–
O=C(NCCOCCOCCNS(=O)(=O)c1ccc(O[C@H]2c3ccccc3C[C@@H]2N2CCCCC2)cc1)[C@H](O)[C@@H](O)C(=O)NCCOCCOCCNS(=O)(=O)c1ccc(O[C@H]2c3ccccc3C[C@@H]2N2CCCCC2)cc1 [compound 98]	8.40	88%	83%	8.10	1	–	–	–	–	–	–	–
O=C(NCCCCNC(=O)NCCOCCOCCNS(=O)(=O)c1ccc(O[C@H]2c3ccccc3C[C@@H]2N2CCCC2)cc1)NCCOCCOCCNS(=O)(=O)c1ccc(O[C@H]2c3ccccc3C[C@@H]2N2CCCC2)cc1 [compound 99]	8.60	52%	41%	–	1	–	–	–	–	–	–	≥ 10 µM
O=C(NCCOCCOCCNS(=O)(=O)c1ccc(O[C@H]2c3ccccc3C[C@@H]2N2CCCCC2)cc1)c1ccc(C(=O)NCCOCCOCCNS(=O)(=O)c2ccc(O[C@H]3c4ccccc4C[C@@H]3N3CCCCC3)cc2)cc1 [compound 100]	8.10	68%	57%	8.30	1	–	–	–	–	–	–	–
O=C(NCCOCCOCCNS(=O)(=O)c1ccc(O[C@H]2c3ccccc3C[C@@H]2N2CCCCC2)cc1)c1cccc(C(=O)NCCOCCOCCNS(=O)(=O)c2ccc(O[C@H]3c4ccccc4C[C@@H]3N3CCCCC3)cc2)c1 [compound 101]	<5.00	81%	64%	8.10	1	–	–	–	–	–	–	–
